Test systems include NCI-H226 lung; KM12 colon; U251 CNS; HCT-116 colon; SN12C renal; HCC-2998 colon; SF-295 CNS; SF-539 CNS.
What all share (experiment): NCI anticancer screen, dose series, 48 h

In PubChem BioAssay (NCI) one finds TGI and GI50 data, which are given here for 24 molecules.

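Following 48 hours of exposure in 96-well plates, responses at five concentrations were used to interpolate endpoints linearly. At the GI50, growth is halved. TGI is the concentration that stops growth completely.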

With `FC(F)(F)C1(Br)C(c2ccccc2)=C1c1ccccc1`, the TGI is 46.3 µM in the assay with NCI-H226 lung; 29.4 µM with KM12 colon; 30.2 µM with U251 CNS; 20.2 µM in the assay with HCT-116 colon; 28.3 µM with SN12C renal; 38.4 µM with HCC-2998 colon. In addition, the TGI was determined as 28.7 µM with SF-295 CNS and 37 µM in the assay with SF-539 CNS.

Consider `COC(=O)C(Cc1nc2ccccc2[nH]c1=O)C(=O)C(=O)Nc1ccc([N+](=O)[O-])cc1[N+](=O)[O-]` (stereo not given), for which the TGI in the assay on NCI-H226 lung came to 32.1 µM; in the assay on KM12 colon, 30.1 µM; in the assay with U251 CNS, 32.5 µM; with HCT-116 colon it was 46.5 µM; with SN12C renal, 50.6 µM; in the assay with HCC-2998 colon, 33.2 µM. The TGI in the assay on SF-295 CNS came to 49.9 µM; with SF-539 CNS, 38.5 µM.

As for `O=[N+]([O-])CCc1cccc([N+](=O)[O-])c1`, the TGI with NCI-H226 lung, with KM12 colon, in the assay with U251 CNS, in the assay on HCT-116 colon, with SN12C renal and in the assay with HCC-2998 colon was more than 100 µM each time. In addition, the TGI in the assay on SF-295 CNS and with SF-539 CNS was more than 100 µM throughout.

On to `C[N+](C)(C)CC(=O)N/N=C(\C(=O)NC1=C(Cl)C(=O)c2ccccc2C1=O)C(C#N)c1csc(-c2ccc([N+](=O)[O-])cc2)n1` (stereo not given), for which the TGI in the assay with NCI-H226 lung, in the assay on KM12 colon, in the assay on U251 CNS, in the assay on HCT-116 colon, in the assay with SN12C renal and in the assay on HCC-2998 colon was more than 100 µM throughout. Also, the TGI with SF-295 CNS and with SF-539 CNS was more than 100 µM throughout.

For `CCOc1cccc2ccc[n+](CC)c12`, the TGI in the assay on NCI-H226 lung, in the assay with KM12 colon, with HCT-116 colon, with SN12C renal, with HCC-2998 colon and in the assay with SF-295 CNS was more than 100 µM in each case. The same molecule returned a TGI in the assay with SF-539 CNS of more than 100 µM.

As for `Cc1cc(Cl)ccc1NC(=O)C(=O)C(C(=O)c1ccc2ccccc2c1)C1OC(=O)c2ccccc21` (stereo not given), the TGI with NCI-H226 lung was 7.69 µM; in the assay with KM12 colon, 52.3 µM; in the assay on U251 CNS it was 21.2 µM; in the assay on HCT-116 colon, 21.7 µM; in the assay on SN12C renal, 37.4 µM; in the assay on HCC-2998 colon, 22.2 µM. The TGI with SF-539 CNS worked out at 17.4 µM.

For `COC(C(=O)NCCCCNC(=O)C(OC)c1ccccc1)c1ccccc1` (stereo not given), the TGI with NCI-H226 lung, in the assay on KM12 colon, in the assay with U251 CNS, in the assay with HCT-116 colon, with SN12C renal and in the assay on SF-295 CNS was more than 100 µM each time. Besides, the TGI in the assay with SF-539 CNS is more than 100 µM.

As for `O=C(Nc1cccc(O)c1)C(=O)C(C(=O)c1ccc(Cl)c(Cl)c1)C1OC(=O)c2ccccc21` (stereo not given), the TGI in the assay with NCI-H226 lung was determined as 21.9 µM; in the assay with KM12 colon it was 41.4 µM; in the assay with U251 CNS it was 21.3 µM; in the assay on HCT-116 colon, 48.2 µM; with SN12C renal, 38.4 µM; in the assay with HCC-2998 colon it was 29.2 µM. For the same molecule, the TGI with SF-295 CNS is 62.6 µM.

`O=C1OC(O)C(Oc2c(Cl)cccc2Cl)=C1Cl` (stereo not given): the TGI in the assay with NCI-H226 lung stood at 42.6 µM; with KM12 colon, 54.1 µM; in the assay on U251 CNS, 26.8 µM; in the assay with HCT-116 colon it was 27.9 µM; with SN12C renal, 35 µM; with HCC-2998 colon, 37.9 µM. Further, the TGI in the assay with SF-295 CNS turned out to be 33.9 µM; in the assay with SF-539 CNS, 32.3 µM.

On to `CCOC(=N)CC(=O)c1ccccc1`, for which the TGI in the assay on NCI-H226 lung, with KM12 colon, with U251 CNS, in the assay on HCT-116 colon, in the assay on SN12C renal and in the assay on HCC-2998 colon was more than 100 µM each time. For the same molecule, the TGI with SF-295 CNS and in the assay on SF-539 CNS was more than 100 µM each time.

Consider `CC(=O)[CH-]C(=O)c1ccccc1.CC(=O)[CH-]C(=O)c1ccccc1.CCOCC[O-].CCOCC[O-].[Ti+4]`, for which the GI50 in the assay with NCI-H226 lung is 5.55 µM; in the assay on KM12 colon it was 27.1 µM; in the assay with U251 CNS, 16 µM; in the assay with HCT-116 colon it was 17.3 µM; in the assay on SN12C renal, 20.6 µM; with HCC-2998 colon, 18.4 µM. For the same molecule, the GI50 in the assay with SF-295 CNS was 17.5 µM; in the assay on SF-539 CNS, 19.1 µM. The TGI with NCI-H226 lung is 22.6 µM; in the assay with KM12 colon it was 77.3 µM; with U251 CNS, 42.2 µM; with HCT-116 colon, 35.6 µM; with SN12C renal, 73.4 µM; in the assay with HCC-2998 colon, 43.5 µM. Moreover, the TGI worked out at 33.9 µM with SF-295 CNS and 50.4 µM in the assay with SF-539 CNS.

Take `CCCN(CCCC(NC(C)=O)C(=O)NCc1ccccc1)C(=O)NCCCl` (stereo not given): the TGI in the assay on NCI-H226 lung, with KM12 colon, in the assay with U251 CNS, with HCT-116 colon, in the assay on SN12C renal and with HCC-2998 colon was more than 100 µM each time. The TGI with SF-295 CNS and in the assay with SF-539 CNS was more than 100 µM each time.

Consider `CC(C)(C)C(=O)OCC1CCC(n2cnc3c(=O)[nH]c(N)nc32)O1` (stereo not given), for which the TGI in the assay on NCI-H226 lung, in the assay on KM12 colon, in the assay on U251 CNS, with HCT-116 colon, with SN12C renal and in the assay with HCC-2998 colon was more than 100 µM throughout. Also, the TGI with SF-295 CNS and in the assay with SF-539 CNS was more than 100 µM each time.

Regarding `CC(C)(C)C1CCC2c3c([nH]c4ccccc34)C3C(=O)N(c4ccccc4)C(=O)C3C2C1` (stereo not given), the TGI with NCI-H226 lung was 21.6 µM; in the assay on KM12 colon, more than 100 µM; in the assay on U251 CNS it was 11 µM; in the assay with SN12C renal, 17.4 µM; in the assay with HCC-2998 colon, 53.5 µM; in the assay on SF-295 CNS it was 16.4 µM. This molecule showed a TGI in the assay on SF-539 CNS of 23.5 µM.

As for `Cc1cc(N(CCC#N)S(C)(=O)=O)ccc1C=Nc1ccc(C(=O)NN2C(=O)/C(=C/c3ccc(N(CCC#N)CCC#N)cc3C)N=C2c2cc([N+](=O)[O-])ccc2Cl)cc1`, the TGI in the assay with NCI-H226 lung, in the assay on KM12 colon, with U251 CNS, in the assay with HCT-116 colon, with SN12C renal and in the assay on HCC-2998 colon was more than 100 µM throughout. This molecule also showed a TGI in the assay with SF-539 CNS of more than 100 µM.

Consider `C=C[C@@]1(O)CCCC2=C(C(=O)OCC)CC[C@]21C`, for which the TGI in the assay on NCI-H226 lung, in the assay with KM12 colon, in the assay on U251 CNS, in the assay on SN12C renal, in the assay with HCC-2998 colon and in the assay with SF-295 CNS was more than 100 µM each time. Besides, in the assay on SF-539 CNS, the TGI is more than 100 µM.

On to `CCc1cccc(CC)c1NC(=O)C1=C(C)NC(C)=C(C(=O)Nc2c(CC)cccc2CC)C1c1ccc([N+](=O)[O-])cc1`, for which the TGI in the assay on NCI-H226 lung is more than 100 µM; in the assay with KM12 colon it was 48.8 µM; with U251 CNS, more than 100 µM; in the assay with HCT-116 colon, 46.4 µM; in the assay with SN12C renal, more than 100 µM; with HCC-2998 colon it was more than 100 µM. The TGI is 38.6 µM with SF-295 CNS and 39.8 µM in the assay on SF-539 CNS.

Turning to `N#C/C(=C1\SC(N=Nc2ccccc2)C(=O)N1c1ccccc1)c1nc2ccccc2[nH]1` (stereo not given), the TGI was more than 100 µM in the assay with NCI-H226 lung; more than 100 µM with U251 CNS; more than 100 µM in the assay on HCT-116 colon; more than 100 µM in the assay with SN12C renal; more than 100 µM with SF-295 CNS; 64.4 µM with SF-539 CNS.

As for `O=C1C(Cl)C(c2ccccc2O)N1n1cnc2ccccc2c1=O` (stereo not given), the TGI in the assay with NCI-H226 lung was more than 100 µM; with KM12 colon, more than 100 µM; with U251 CNS it was more than 100 µM; with HCT-116 colon, more than 100 µM; in the assay on SN12C renal it was 20.4 µM; with HCC-2998 colon, more than 100 µM. In the assay with SF-295 CNS, this molecule gave a TGI of more than 100 µM.

With `CN1C(=O)C(=O)c2cc3c(c4c2c1cc1ccccc14)OCO3`, the TGI was 73.3 µM with NCI-H226 lung; 58.9 µM with KM12 colon; more than 100 µM with U251 CNS; more than 100 µM in the assay on HCT-116 colon; more than 100 µM with SN12C renal; more than 100 µM in the assay on HCC-2998 colon. Besides, the TGI in the assay on SF-295 CNS and with SF-539 CNS was more than 100 µM in each case.

With `C/C=C/CC(C)[C@@H](O)[C@H](NC)C(=O)O` (stereo not given in full), the TGI in the assay on KM12 colon, with U251 CNS, in the assay with SN12C renal, in the assay on HCC-2998 colon, with SF-295 CNS and with SF-539 CNS was more than 100 µM throughout.

In the case of `CC(=O)OC1CC2C(C)(C)C(=O)C=C[C@]2(C)C2CCC3(C)C(=CC(=O)C3c3ccoc3)[C@]12C` (stereo not given in full), the TGI in the assay with NCI-H226 lung was 35.6 µM; in the assay with KM12 colon, 35.5 µM; with HCT-116 colon, 24.9 µM; in the assay with SN12C renal, 32.5 µM; with HCC-2998 colon, 26 µM; with SF-295 CNS, 28.7 µM. For the same molecule, in the assay on SF-539 CNS, the TGI stood at 31.2 µM.

Turning to `O=c1[nH]c2cc(Cl)ccc2nc1/C(=N\O)C(O)c1ccc([N+](=O)[O-])cc1` (stereo not given), the TGI in the assay with KM12 colon, in the assay on U251 CNS, in the assay with HCT-116 colon, with SN12C renal, in the assay on HCC-2998 colon and with SF-295 CNS was more than 100 µM in each case. Besides, in the assay with SF-539 CNS, the TGI was more than 100 µM.

For `O=c1c2cccc3cccc(c4n1CCN=4)c32`, the TGI with NCI-H226 lung, in the assay on KM12 colon, with U251 CNS, with HCT-116 colon, with SN12C renal and in the assay on SF-295 CNS was more than 100 µM throughout. The same molecule showed a TGI in the assay with SF-539 CNS of more than 100 µM.
